Data: patent publication US6649609B2, “Benzimidazole derivatives and pharmaceutical compositions comprising these compounds” (Neurosearch A/S, priority 1999, dated 2003)
Several values for one entry are separate records, joined by “and”; a condition that tells them apart may be missing. Identical values can stand only once. Marks after values point to notes of the source that are not given here.

How the values were obtained:
pigs = assay: Evaluation of efficacy: anaesthesia after bolus injection; format: in vivo; details: pigs 25-30 kg; for Induction Time / Maintained anaesthesia / Normalising time following awakening: i.v. bolus, dose per compound as in Table 10 (0.03-3 mg/kg)
Method: Aqueous solutions of the test substances (50 mg/ml isotonic glucose) were administered to pigs (25-30 kg) as bolus injections. The actual dose of each substance is included in the table below.
These observations are compiled in Table 10 below. This table also provides comparative data for compounds of the prior art (WO 98/17651).

[1] = target: benzodiazepine receptor (GABAA receptor complex), cerebral cortex membranes; assay: In vitro inhibition of 3H-flunitrazepam (3H-FNM) binding; details: inhibition of specific 3H-FNM (1 nM) binding, rat cerebral cortex membranes
Method: The GABA recognition site and the benzodiazepine modulatory unit can selectively be labelled with ^3H-muscimol and ^3H-flunitrazepam, respectively.
13A: In vitro inhibition of ^3H-flunitrazepam (^3H-FNM) binding
Preparations are performed at 0-4° C. unless otherwise indicated. Cerebral cortex from male Wistar rats (150-200 g) is homogenised for 5-10 sec in 20 ml Tris-HCl (30 mM, pH 7.4) using an Ultra-Turrax homogeniser. The suspension is centrifuged at 27,000× g for 15 min and the pellet is washed three times with buffer (centrifuged at 27,000× g for 10 min). The washed pellet is homogenized in 20 ml of buffer and incubated on a water bath (37° C.) for 30 min to remove endogenous GABA and then centrifuged for 10 min at 27,000× g. The pellet is then homogenized in buffer and centrifuged for 10 min at 27,000× g. The final pellet is resuspended in 30 ml buffer and the preparation is frozen and stored at −20° C.
The membrane preparation is thawed and centrifuged at 2° C. for 10 min at 27,000× g. The pellet is washed twice with 20 ml 50 mM Tris-citrate, pH 7.1 using an Ultra-Turrax homogeniser and centrifuged for 10 min at 27,000× g. The final pellet is resuspended in 50 mM Tris-citrate, pH 7.1 (500 ml buffer per g of original tissue), and then used for binding assays. Aliquots of 0.5 ml tissue are added to 25 μl of test solution and 25 μl of ^3H-FNM (1 nM, final concentration), mixed and incubated for 40 min at 2° C., Non-specific binding is determined using Clonazepam (1 μM, final concentration). After incubation the samples are added 5 ml of ice-cold buffer and poured directly onto Whatman GFIC glass fibre filters under suction and immediately washed with 5 ml ice-cold buffer. The amount of radioactivity on the filters is determined by conventional liquid scintillation counting. Specific binding is total binding minus non-specific binding.
The test value will be given as IC50 (the concentration (μM) of the test substance which inhibits the specific binding of ^3H-FNM by 50%). [formula]
Co is specific binding in control assays, and
Cx is the specific binding in the test assay.
(The calculations assume normal mass-action kinetics).

[2] = system: GABAA receptor-ion channel complex (forebrain); assay: In vivo inhibition of 3H-FNM binding; set-up: species or system mouse; details: female NMRI mice, test substance i.v., inhibition of specific [3H]FNM binding in forebrain
Method: 13B: In vivo inhibition of ^3H-FNM binding
[^3H]FNM can also be used for in vivo receptor labelling studies in mouse. Accumulation of [^3H]FNM binding will occur all over the brain as GABAA receptors are widely distributed.
All test substances used are solutions prepared in 10% TWEEN 80. Groups of three female NMRI mice (25 g) are injected i.v. via the tail vein with 5.0 μCi of [3H]FNM in 0.2 ml saline. Fifteen min after injection with [^3H]FNM the test substance is administered i.v. Twenty min after injection with [^3H]FNM, mice are killed by decapitation, the forebrains rapidly excised and homogenized in 12 ml of ice-cold 50 mM Tris-citrate, pH 7.1 using an Ultra-Turrax homogenizer. Three aliquots of 1 ml are immediately filtered through GF/C glass fibre filters and washed with 2×5 ml of ice-cold buffer. The amounts of radioactivity on the filters and in 200 μl of the homogenate are determined by conventional scintillation counting. Groups of untreated mice serves as controls. To determine non-specific binding groups of mice are injected with Clonazepam (25 mg/kg) i.p. 10 min before [3H]FNM injection. Specific binding is the amount of binding in controls minus the amount of binding in Clonazepam treated mice.
The ED50 value is determined from dose response curves. […] [formula]
where Co is specific binding in controls and Cx is the specific binding in mice treated with test substance.

[3] = system: clonic convulsions induced by pentylenetetrazol (PTZ); assay: PTZ clonic convulsions; format: in vivo; details: female NMRI mice; for ED100: i.v., dose increasing the PTZ threshold to 100 mg PTZ/kg (linear regression); for ptz threshold at 30 mg/kg: test substance 30 mg/kg i.v., PTZ infused after 5 min, vehicle threshold 37-39 mg PTZ/kg
Method: The purpose of this test is to show antagonism of clonic convulsions induced by pentylenetetrazol (PTZ). PTZ induces clonic convulsions in mice after i.v. infusion. Antagonism of PTZ-induced convulsions is a measure for the agonistic character of ligands for the benzodiazepine recognition site.
Female NMRI mice (Bomholdtgaard, Ry), 20 g, 6 mice in each group are administered i.v. with vehicle or test substance. After five minutes the PTZ-solution is infused intravenously at a speed of 0.7 ml/minute through a cannula placed in the tail vein. The time from initiation of the infusion to appearance of clonic convulsions is recorded.
The dose of PTZ required for inducing convulsion in each mouse is calculated as PTZ/kg body weight. Means ±sd for each experimental group of 6 mice is calculated. ED100 is calculated by linear regression expressing the dose increasing the PTZ threshold to 100 mg PTZ/kg.
The threshold of vehicle treated controls is in the range of 37-39 mg PTZ/kg. As a control in each series of experiments PTZ is infused into 6 vehicle treated mice.

Structure (SMILES)	Induction Time (pigs)	Maintained anaesthesia (pigs)	Normalising time following awakening (pigs)	IC50 [1]	In vivo binding ED50 [2]	ED100 [3]	ptz threshold at 30 mg/kg [3]	melting point	Observation on anaesthesia (footnote to Maintained anaesthesia) (pigs; bolus 3 mg/kg)
CCOC(=O)CN1CCN(c2cccc(-n3cnc4cc(C(=O)OCCOC)ccc43)c2)CC1 [Compound 1b, 2-Methoxyethyl 1-(3-(4-(ethoxy-carbonyl-methyl)-1-piperazinyl)-phenyl)-benzimidazole-5-carboxylate]	1.3 min	10^ min.	15 min	260 nM	0.9 mg/kg	1.6 mg/kg	200 mg/kg		
CCOC(=O)CN1CCC(c2cccc(-n3cnc4cc(-c5ccoc5)ccc43)c2)CC1 [Compound 7g, 5-(3-Furanyl)-1-(3-(1-ethoxycarbonylmethyl-4-piperidyl)-phenyl)-benzimidazole]				0.9 nM	1.4 mg/kg	1.2 mg/kg	200 mg/kg	114.5 to 115 °C and 114 to 115 °C	
CCOC(=O)N1CCN(c2cccc(-n3cnc4cc(-c5ccoc5)ccc43)c2)CC1 [Compound 7i, 5-(3-Furanyl)-1-(3-(1-ethoxycarbonyl-4-piperazinyl)-phenyl)-benzimidazole]				0.8 nM	1.8 mg/kg	2.5 mg/kg	140 mg/kg	131 to 132 °C	
CC(=O)N1CCN(CCOC(=O)c2cccc(-n3cnc4cc(-c5ccoc5)ccc43)c2)CC1 [Compound 7j, 2-(1-Acetyl-4-piperazinyl)-ethyl 3-(5-(3-furanyl)-1-benzimidazolyl)-benzoate]	0.5 min	8^a min.	20 min	2.8 nM	1.9 mg/kg	13 mg/kg	170 mg/kg		^aUneasy sleep
